# Measured values as given in patent publication US10253274B2, “Compounds and methods for inhibiting corrosion in hydrocarbon processing units” (General Electric Company, priority 2012, dated 2019).
# Read-outs that look alike come from different tables or passages of the source.
# Key:
# [1] = Amine-HCl salt precipitation potential index (Salt PPI) relative to ammonia salt; assay type: physicochemical
# From the text: Without limiting this specification to any particular theory of operation, the overall efficiency of a given amine may be predicted upon assessment of several factors. One such factor is the amine-HCl salt precipitation potential index (“Salt PPI”). The Salt PPI may also be known by those in the art as the salt volatility index. These indices are merely a comparison of the precipitation potential of the amine salt to the salt of a typical neutralizing compound used in hydrocarbon refining, ammonia.
# Salt PPI may be calculated from the equation: […]
# If one were to substitute the vapor pressure of ammonia for the vapor pressure of the amine in the equation, the Salt PPI would be 1.0. Effective amines are those that are as good, if not better than the typical additive, ammonia. Thus, effective amines would have a Salt PPI of equal to or less than 1.0. Other neutralizers commonly used in hydrocarbon refining are trimethylamine and N-methylmorpholine.
# [2] = Neutralization efficiency by two-phase titration (pH at amine titrant concentration); assay type: physicochemical; conditions: 100° C.; for Neutral. Efficiency pH at 250 ppm: 250 ppm amine titrant; for Neutral. Efficiency pH at 500 ppm: 500 ppm amine titrant; for Neutral. Efficiency pH at 1000 ppm: 1000 ppm amine titrant
# Experimental: Several amines were tested to determine their efficiencies in neutralizing acidic species and reducing deposits of hydrochloride and amine salts. The neutralization efficiency of these amines was tested using two-phase titration. For each amine tested, a titrand (100 ml) was placed in a flask. The titrand was designed to simulate an initial condensate and comprised 90 vol % naphtha and 10 vol % acidic water. The titrand was heated to 100° C. and maintained at that temperature while amine titrant was added to the flask.
# A second set of tests were performed using some of the effective amines above. Additional tertiary amines were also tested and found to be effective. The additional tertiary amines were N-methyl piperidine, 2-dimethylamino 2-methyl 1-propanol (“DMAMP”) in an azeotropic solution comprising 80 wt % amine, N,N,N′,N′-tetramethyldiamino methane (“TMMD”), dimethyl tertiary butanolamine (“DMTBA”), and dimethyl methoxypropylamine (“DMMOPA”). The neutralization efficiency of these amines was tested using two-phase titration. For each amine tested, a titrand (100 ml) was placed in a flask. The titrand was designed to simulate an initial condensate and comprised 90 vol % naphtha and 10 vol % acidic water. The titrand was heated to 100° C. and maintained at that temperature while amine titrant was added to the flask. The tests were repeated 3 times in the second set of tests. The data in Table 2 are the averages of the 3 repeated tests.
# Boiling point = conditions: Table 2
# pKa of the amine = assay type: physicochemical
# From the text: Another factor indicative of the overall efficiency of a given amine is the logarithm of the acid dissociation constant, pKa. Generally, amines with higher pKa values are more efficient neutralizers. Accordingly, in another embodiment, the treatment composition may comprise an amine with a pKa equal to or greater than about 5.0.
# [3] = Table 1, average over 225 to 300° F., ammonia benchmark = 1.0
# [4] = Table 2, average over 225 to 300° F., ammonia benchmark = 1.0
# [5] = Table 2, second set, averages of 3 repeated tests
# [6] = Table 3, exemplary treatment composition
# [7] = Table 4, exemplary treatment composition
SMILES,"Salt PPI [1, 3]","Salt PPI [1, 4]","Neutral. Efficiency pH at 250 ppm ([2]; Table 1, first set of tests)","Neutral. Efficiency pH at 500 ppm ([2]; Table 1, first set of tests)","Neutral. Efficiency pH at 1000 ppm ([2]; Table 1, first set of tests)","Neutral. Efficiency pH at 250 ppm [2, 5]","Neutral. Efficiency pH at 500 ppm [2, 5]","Neutral. Efficiency pH at 1000 ppm [2, 5]",Boiling Point (Boiling point) [°C],Solubility Oil/Water (Solubility Oil/Water; Table 1),Solubility Oil/Water (Solubility Oil/Water; Table 2),"pKa (pKa of the amine; Table 1, read-out: pKa)",Solubility Oil/Water (Solubility Oil/Water; [6]),Solubility Oil/Water (Solubility Oil/Water; [7]),"pKa (pKa of the amine; Table 2, read-out: pKa)",pKa (pKa of the amine; Table 2),Salt PPI ([1]; ammonia salt is the benchmark),pKa (pKa of the amine; Table 1)
"CC(C)C(C)N (stereo not shown) [1,2 Dimethyl propyl amine, 1,2 dimethylpropylamine]",<0.1,0.30,1.4,8.5,9.6,1.4,8.5,9.6,87,Water,Water,9.9,–,–,–,–,–,–
"CN1CCN(C)CC1 [1,4-dimethylpiperazine]",<0.1,0.18,3.7,5.5,7.6,3.7,5.5,7.6,132,Water,Water,8.2,Water,Water,–,–,–,–
CN(C)C(C)(C)CO [2-Dimethylamino 2-methyl 2-propanol (DMAMP) 80% azeotrope so] [2-dimethylamino 2-methyl 1-propanol],–,0.27,–,–,–,2.3,6.3,9.5,98,–,Water,–,–,–,–,–,–,–
CN(C)C(C)(C)CO [2-dimethylamino 2-methyl 1-propanol],–,–,–,–,–,–,–,–,–,–,–,–,–,–,10.2,–,–,–
CCN(O)CC [Diethylhydroxylamine],<0.1,–,2.4,4.1,5.0,–,–,–,–,Water,–,5.61,–,–,–,–,–,–
"C#CCN(CC)CC [Diethylpropargylamine, diethylpropargylamine]",0.12,–,2.2,3.6,5.9,–,–,–,–,–,–,7.7,–,–,–,–,–,–
"COCCCN(C)C [Dimethyl methoxypropyl-amine (DMMOPA), dimethyl methoxypropylamine]",–,0.20,–,–,–,–,–,–,124,–,Water,–,–,–,–,–,–,–
"CN(C)C(C)(C)CO [Dimethyl tertiarybutanolamine (DMTBA), dimethyl tertiary butanolamine]",–,0.32,–,–,–,–,–,–,150,–,Water,–,–,–,–,8.9,–,–
"CN(C)C1CCCCC1 [Dimethylcyclohexylamine, dimethylcyclohexylamine]",0.10,–,1.8,1.9,5.2,–,–,–,–,–,–,10,–,–,–,–,–,–
"NCc1ccco1 [Furfurylamine, furfurylamine]",0.38,–,2.6,6.5,8.5,–,–,–,–,Water,–,8.89,–,–,–,–,–,–
"CN(C)CN(C)C [N,N,N′,N′-tetramethyldiaminomethane]",–,0.30,–,–,–,7.54,8.87,9.25,–,–,–,–,–,–,–,–,–,–
"CN(C)CCN(C)C [N,N,N′,N′-tetramethylethylenediamine]",0.27,0.48,4.7,6.7,8.3,4.7,6.7,8.3,122,Water,Water,8.97,–,–,–,8.97,–,–
CN1CCCCC1 [N-methyl piperidine],–,0.24,–,–,–,2.1,7.5,8.1,107,–,Water,–,–,–,10.1,–,–,–
CCCCN(C)CCCC [N-methyldibutylamine],<0.1,–,1.9,2.0,5.0,–,–,–,–,–,–,10.3,–,–,–,–,–,–
CCCN(C)CCC [N-methyldipropylamine],<0.1,–,2.4,2.8,5.6,–,–,–,–,–,–,10.1,–,–,–,–,–,–
"CN1CCOCC1 [N-methylmorpholine (NMM), N-methylmorpholine, reference compound]",0.18,0.18,2.4,5.4,6.8,2.4,5.4,6.8,116,–,–,7.1,–,–,–,–,–,–
CN1CCCC1 [N-methylpyrrolidine],<0.1,0.10,2.2,6.8,8.1,2.2,6.8,8.1,81,Water,Water,10.3,Water,Water,–,–,–,–
"CN(C)C [Trimethylamine (TMA), Trimethylamine, reference compound]",0.10,0.10,2.6,8.0,8.8,2.6,8.0,8.8,2.87,Water,Water,9.76,–,–,–,9.76,–,–
"N [ammonia, reference compound]",–,–,–,–,–,–,–,–,–,–,–,–,–,–,–,–,1.0,–
"CCCNCCC [di-N-propyl amine, di-N-propylamine]",0.24,–,2.2,3.0,7.6,–,–,–,–,–,–,–,–,–,–,–,–,10.91
